Series [1] concerns the target hERG potassium channel (Homo sapiens, UniProt Q12809). The series can be described thus: Inhibition test of the hERG potassium channel (automatic patch clamp, CHO-hERG cells). Format: cell-based. The note with it: QPatch whole-cell patch clamp, room temperature. As to the method: To assay the effect of the compound disclosed herein on hERG potassium channel by using automatic patch-clamp method.
The cells stably expressing the hERG potassium channel used in the experiment were CHO-hERE from Aviva Biosciences. CHO-hERG was cultured at 37° C. in 5% CO2.
The CHO-hERG cells used in the experiment were cultured for at least two days, and the cell density reached 75% or more. Before the experiment, the cells were digested with TrypLE, and then the collected cells were resuspended in extracellular fluid.
The extracellular fluid needed to be prepared once a month. The intracellular fluid must be frozen in aliquots at −20° C.
The test compound and its positive control amitriptyline were dissolved in DMSO to obtain a stock solution at a certain concentration. […]
With a holding potential of −80 mv, a voltage stimulation of −50 my was applied for 80 ms to record the cell leakage current value; then hERG channel was opened by a depolarization to +20 my for 4800 ms and hERG tail current was elicited by a repolarization to −50 my for 5000 ms and recorded; and finally, the voltage was restored to the holding potential of −80 my and maintained for 3100 ms. […]
In each complete current recording, the inhibition percentage of each compound at the action concentration could be calculated based on the percentage of peak current in the negative control. […]
Background: The hERG channel carries a current that helps repolarise heart muscle cells.

The nature of series [2]: Experiment on cytotoxicity (CellTiter-Glo, 3 days). The series is classed as cell-based. The note with it: 3 days incubation, read-out: 50% cytotoxic concentration (CC50). How it is done:
• 1. The compound was diluted with DMSO (dimethyl sulfoxide) in a 3-fold gradient for 9 concentrations, and added into a 96-well plate in duplicate. The compound concentration was 200-fold of the final test concentration. • 2. The cells were rinsed with PBS (phosphate buffered saline) once, added with 0.25% trypsin and digested for about 2-5 min in a 37° C., 5% CO2 incubator. Then the digestion was terminated with a cell culture medium and the cells were dispersed into single cells by pipetting with a pipettor. • 3. The cell density was counted with a cell counter, and adjusted to the required density with the medium. • 4. The cells were added into a 96-well plate that had been added with the compound. The final concentration of DMSO in each well was 0.5%. Wells containing 0.5% DMSO were used as non-toxic negative controls, and wells containing the cell culture medium were used as 100% cytotoxicity controls. Then the cell plate was incubated in a 37° C., 5% CO2 cell incubator for 3 days. • 5. The chemiluminescence signal (RLU, relative chemiluminescence unit) of each well in the cell plate was detected with the cell viability detection kit CellTiter-Glo using the multi-functional microplate reader Envision, with instructions on the kit followed. • 6. The raw data (RLU) were substituted into the following formula to calculate the cell viability of each well (cell viability %): […]
A general note: In ATP-based viability assays light output follows the ATP content of the culture.

A short description of series [3]: Metabolic stability in liver microsomes. Format: in vitro ADME, human. The note with it: for half-life at 1 μM: Human liver microsomes, 1 μM compound, 0.5 mg/mL; for CLint scaled at 1 μM / microsomal CLint at 1 μM: human liver microsomes; for microsomal CLint at 1 μM: read-out: CLint(mic). As to the method:
Experimental objective: to evaluate the metabolic stability of the test compound in CD-1 mice and human liver microsomes
Experimental procedures: first, the test compound (10 mM) was subjected to a two-step dilution, where the compound was diluted to an intermediate concentration of 100 μM with 100% methanol, and the working solution was diluted to 10 μM with a potassium phosphate buffer; eight 96-well incubation plates were prepared, and named T0, T5, T10, T20, T30, T60, Blank and NCF60, respectively; the reaction time points corresponding to the first 6 incubation plates were 0, 5, 10, 20, 30 and 60 min, respectively; for the Blank plate, neither the test compound nor a control compound was added, and for the NCF60 plate, potassium phosphate buffer was used in an incubation of 60 min in place of a NADPH regeneration system solution; 10 μL of the test compound working solution and 80 μL of the microsome working solution (liver microsome protein concentration was 0.625 mg/mL) were added to the T0, T5, T10, T20, T30, T60 and NCF60 plates, while only the microsome working solution was added to the Blank plate, and all the incubation plates were then placed in a 37° C. water bath for pre-incubation for about 10 min; after the pre-incubation, 10 μL of a NADPH regeneration system working solution was added into each sample well of all the plates except the NCF60 plate and T0 plate to start the reaction, and 10 μL of potassium phosphate buffer was added to each well of the NCF60 plate; therefore, in the test compound or control compound samples, the final reaction concentrations of the compound, testosterone, diclofenac and propafenone were 1 μM, the concentration of the liver microsomes was 0.5 mg/mL, and the final concentrations of DMSO and acetonitrile in the reaction system were 0.01% (v/v) and 0.99% (v/v), respectively; after incubation for an appropriate time (such as 5, 10, 20, 30, and 60 min), 300 μL of a stop solution (acetonitrile solution containing 100 ng/mL tolbutamide and 100 ng/mL labetalol) was added to each sample well to stop the reaction; 300 μL of the stop solution and then 10 μL of the NADPH working solution were added to the T0 plate, all the sample plates were shaken and centrifuged in a centrifuge (3220×g) for 20 min, and then 100 μL of supernatant was taken from each well and diluted with 300 μL of pure water for liquid chromatography-tandem mass spectrometry analysis.
A general note: Microsomes from liver hold many membrane-bound enzymes, among them those of drug oxidation.

Chain of hERG potassium channel (Q12809 whole entry): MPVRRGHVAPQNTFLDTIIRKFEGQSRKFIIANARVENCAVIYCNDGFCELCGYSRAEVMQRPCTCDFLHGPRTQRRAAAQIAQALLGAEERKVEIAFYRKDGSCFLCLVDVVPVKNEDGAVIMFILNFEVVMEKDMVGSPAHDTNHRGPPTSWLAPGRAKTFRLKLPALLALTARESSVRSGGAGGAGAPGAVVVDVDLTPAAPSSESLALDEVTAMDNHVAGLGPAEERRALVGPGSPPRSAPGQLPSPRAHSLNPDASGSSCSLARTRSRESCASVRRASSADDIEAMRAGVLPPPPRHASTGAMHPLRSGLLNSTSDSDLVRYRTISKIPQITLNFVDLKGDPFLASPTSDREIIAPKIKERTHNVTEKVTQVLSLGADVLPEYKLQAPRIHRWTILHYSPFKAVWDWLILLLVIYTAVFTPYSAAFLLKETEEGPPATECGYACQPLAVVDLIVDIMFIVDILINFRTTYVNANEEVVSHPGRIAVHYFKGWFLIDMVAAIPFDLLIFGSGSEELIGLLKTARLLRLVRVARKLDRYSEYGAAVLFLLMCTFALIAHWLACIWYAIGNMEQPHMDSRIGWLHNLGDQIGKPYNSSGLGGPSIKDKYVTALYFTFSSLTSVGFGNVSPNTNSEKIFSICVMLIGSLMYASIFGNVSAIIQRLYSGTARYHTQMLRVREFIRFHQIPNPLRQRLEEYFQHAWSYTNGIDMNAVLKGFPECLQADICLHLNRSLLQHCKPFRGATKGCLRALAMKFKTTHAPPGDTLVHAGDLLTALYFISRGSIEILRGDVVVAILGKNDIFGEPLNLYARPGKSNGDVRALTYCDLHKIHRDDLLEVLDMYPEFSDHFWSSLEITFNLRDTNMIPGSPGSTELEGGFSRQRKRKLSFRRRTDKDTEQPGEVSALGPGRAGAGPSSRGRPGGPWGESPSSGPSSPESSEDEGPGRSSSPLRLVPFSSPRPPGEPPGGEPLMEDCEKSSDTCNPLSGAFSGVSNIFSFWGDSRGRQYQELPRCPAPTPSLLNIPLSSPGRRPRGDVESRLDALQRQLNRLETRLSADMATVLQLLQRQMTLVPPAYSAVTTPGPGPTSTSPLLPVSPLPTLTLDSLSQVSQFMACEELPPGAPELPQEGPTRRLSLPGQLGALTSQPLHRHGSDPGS

One may read the IC50 as the concentration that inhibits the measured activity by half. A low value points to inhibition by little substance. As a reminder, the half-life is how long it takes for the measured level to halve. Read a low half-life as rapid decline. A word on the CLint scaled: it is a measure of how fast metabolising enzymes remove a compound, apart from limits set by blood flow. Lower therefore signals greater metabolic stability. `C[C@]1(NC(=O)C(=O)c2c(Cl)c(C(=O)Nc3ccc(F)c(F)c3)c3n2CCC3)CC[C@H](CC(=O)O)CC1` [Compound 18] showed an IC50 in series [1] greater than 40 µM. The CC50 at 3 days in series [2] is greater than 50 µM. Further, in series [3], the half-life at 1 μM is greater than 2.42 h, the CLint scaled at 1 μM is less than 8.6 mL/min/kg and the microsomal CLint at 1 μM was less than 9.6 µL/min/mg.
As to `C[C@]1(NC(=O)C(=O)c2c(Cl)c(C(=O)Nc3cc(F)c(F)c(F)c3)c3n2CCC3)CC[C@H](CC(=O)O)CC1` [Compound 25], the IC50 in series [1] is greater than 40 µM. Also, the CC50 at 3 days in series [2] is greater than 50 µM. Besides, in series [3], the half-life at 1 μM was greater than 2.42 h, the intrinsic metabolic clearance (CLint scaled) at 1 μM is less than 8.6 mL/min/kg and the microsomal CLint at 1 μM is less than 9.6 µL/min/mg.

Values taken from patent US20220204510A1, “2,3-DIHYDRO-1H-PYRROLIZINE-7-FORMAMIDE DERIVATIVE AND APPLICATION THEREOF” (CHIA TAI TIANQING PHARMACEUTICAL GROUP CO., LTD., priority 2018, published 2022).
